Test results reported in the supplement of paper PMC10307832.

Assays:
Experiment in all cases: relative viability (nuclei count vs DMSO), 5 days (fraction); higher = more cells survive
Linifanib = compound: Cc1ccc(F)c(NC(=O)Nc2ccc(-c3cccc4[nH]nc(N)c34)cc2)c1 [Linifanib]
How it was run: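 On vehicle-anchored 1536-well plates, lung cancer cell lines held overnight at 37 °C were pinned with five library-drug doses (not always all listed) spaced by √10. With no medium change over 5 days, they were then fixed, permeabilised and Hoechst-stained in one step and imaged at 4×. MetaXpress counted nuclei, and viability is the median across plates of treated-well over vehicle-well nuclei. Acceptance needed control CV below 25% and at least one doubling.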

Linifanib + Navitoclax = compound: Cc1ccc(F)c(NC(=O)Nc2ccc(-c3cccc4[nH]nc(N)c34)cc2)c1 [Linifanib] + CC1(C)CCC(c2ccc(Cl)cc2)=C(CN2CCN(c3ccc(C(=O)NS(=O)(=O)c4ccc(N[C@H](CCN5CCOCC5)CSc5ccccc5)c(S(=O)(=O)C(F)(F)F)c4)cc3)CC2)C1 [Navitoclax] (partner 0.5 µM)
How it was run: (§1)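 A single step with final 0.05% Triton X-100, 1% formaldehyde and 1 ug/ml Hoechst fixed the cells and stained nuclei 5 days after treatment. Lung cancer cell lines in 1536-well plates had been treated by pin tool the day after seeding with one drug alone or a fixed anchor-drug dose plus five library-drug doses (not always all listed) in √10 steps, and nuclei were counted on 4× images. Relative viability is the ratio of nuclei in treated wells to nuclei in vehicle wells, taken as the median of duplicate plates.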

Linifanib + Foretinib = compound: Cc1ccc(F)c(NC(=O)Nc2ccc(-c3cccc4[nH]nc(N)c34)cc2)c1 [Linifanib] + COc1cc2c(Oc3ccc(NC(=O)C4(C(=O)Nc5ccc(F)cc5)CC4)cc3F)ccnc2cc1OCCCN1CCOCC1 [Foretinib] (partner 0.25 µM)
How it was run: as §1

Linifanib + Lapatinib = compound: Cc1ccc(F)c(NC(=O)Nc2ccc(-c3cccc4[nH]nc(N)c34)cc2)c1 [Linifanib] + CS(=O)(=O)CCNCc1ccc(-c2ccc3ncnc(Nc4ccc(OCc5cccc(F)c5)c(Cl)c4)c3c2)o1 [Lapatinib] (partner 2 µM)
How it was run: as §1

Linifanib + Pictilisib = compound: Cc1ccc(F)c(NC(=O)Nc2ccc(-c3cccc4[nH]nc(N)c34)cc2)c1 [Linifanib] + CS(=O)(=O)N1CCN(Cc2cc3nc(-c4cccc5[nH]ncc45)nc(N4CCOCC4)c3s2)CC1 [Pictilisib] (partner 1 µM)
How it was run: as §1

Linifanib + Crizotinib = compound: Cc1ccc(F)c(NC(=O)Nc2ccc(-c3cccc4[nH]nc(N)c34)cc2)c1 [Linifanib] + C[C@@H](Oc1cc(-c2cnn(C3CCNCC3)c2)cnc1N)c1c(Cl)ccc(F)c1Cl [Crizotinib] (partner 1 µM)
How it was run: as §1

Linifanib + Linsitinib = compound: Cc1ccc(F)c(NC(=O)Nc2ccc(-c3cccc4[nH]nc(N)c34)cc2)c1 [Linifanib] + C[C@]1(O)C[C@@H](c2nc(-c3ccc4ccc(-c5ccccc5)nc4c3)c3c(N)nccn32)C1 [Linsitinib] (partner 1 µM)
How it was run: as §1

Linifanib + Alpelisib = compound: Cc1ccc(F)c(NC(=O)Nc2ccc(-c3cccc4[nH]nc(N)c34)cc2)c1 [Linifanib] + Cc1nc(NC(=O)N2CCC[C@H]2C(N)=O)sc1-c1ccnc(C(C)(C)C(F)(F)F)c1 [Alpelisib] (partner 2 µM)
How it was run: as §1

Linifanib + Phenformin = compound: Cc1ccc(F)c(NC(=O)Nc2ccc(-c3cccc4[nH]nc(N)c34)cc2)c1 [Linifanib] + N=C(N)NC(=N)NCCc1ccccc1 [Phenformin] (partner 250 µM)
How it was run: as §1

Linifanib + Decitabine = compound: Cc1ccc(F)c(NC(=O)Nc2ccc(-c3cccc4[nH]nc(N)c34)cc2)c1 [Linifanib] + Nc1ncn([C@H]2C[C@H](O)[C@@H](CO)O2)c(=O)n1 [Decitabine] (partner 2 µM)
How it was run: as §1

Linifanib + Olaparib = compound: Cc1ccc(F)c(NC(=O)Nc2ccc(-c3cccc4[nH]nc(N)c34)cc2)c1 [Linifanib] + O=C(c1cc(Cc2n[nH]c(=O)c3ccccc23)ccc1F)N1CCN(C(=O)C2CC2)CC1 [Olaparib] (partner 8 µM)
How it was run: as §1

Linifanib + Bortezomib = compound: Cc1ccc(F)c(NC(=O)Nc2ccc(-c3cccc4[nH]nc(N)c34)cc2)c1 [Linifanib] + CC(C)C[C@H](NC(=O)[C@H](Cc1ccccc1)NC(=O)c1cnccn1)B(O)O [Bortezomib] (partner 0.002 µM)
How it was run: as §1

Cell Line | relative viability (Linifanib; 0.03162 µM) | relative viability (Linifanib; 0.1 µM) | relative viability (Linifanib; 0.3162 µM) | relative viability (Linifanib + Navitoclax; first compound 0.03162 µM) | relative viability (Linifanib + Navitoclax; first compound 0.1 µM) | relative viability (Linifanib + Navitoclax; first compound 0.3162 µM) | relative viability (Linifanib + Foretinib; first compound 0.03162 µM) | relative viability (Linifanib + Foretinib; first compound 0.1 µM) | relative viability (Linifanib + Foretinib; first compound 0.3162 µM) | relative viability (Linifanib + Lapatinib; first compound 0.03162 µM) | relative viability (Linifanib + Lapatinib; first compound 0.1 µM) | relative viability (Linifanib + Lapatinib; first compound 0.3162 µM) | relative viability (Linifanib + Pictilisib; first compound 0.03162 µM) | relative viability (Linifanib + Pictilisib; first compound 0.1 µM) | relative viability (Linifanib + Pictilisib; first compound 0.3162 µM) | relative viability (Linifanib + Crizotinib; first compound 0.03162 µM) | relative viability (Linifanib + Crizotinib; first compound 0.1 µM) | relative viability (Linifanib + Crizotinib; first compound 0.3162 µM) | relative viability (Linifanib + Linsitinib; first compound 0.03162 µM) | relative viability (Linifanib + Linsitinib; first compound 0.1 µM) | relative viability (Linifanib + Linsitinib; first compound 0.3162 µM) | relative viability (Linifanib + Alpelisib; first compound 0.03162 µM) | relative viability (Linifanib + Alpelisib; first compound 0.1 µM) | relative viability (Linifanib + Alpelisib; first compound 0.3162 µM) | relative viability (Linifanib + Phenformin; first compound 0.03162 µM) | relative viability (Linifanib + Phenformin; first compound 0.1 µM) | relative viability (Linifanib + Phenformin; first compound 0.3162 µM) | relative viability (Linifanib + Decitabine; first compound 0.03162 µM) | relative viability (Linifanib + Decitabine; first compound 0.1 µM) | relative viability (Linifanib + Decitabine; first compound 0.3162 µM) | relative viability (Linifanib + Olaparib; first compound 0.03162 µM) | relative viability (Linifanib + Olaparib; first compound 0.1 µM) | relative viability (Linifanib + Olaparib; first compound 0.3162 µM) | relative viability (Linifanib + Bortezomib; first compound 0.03162 µM) | relative viability (Linifanib + Bortezomib; first compound 0.1 µM) | relative viability (Linifanib + Bortezomib; first compound 0.3162 µM)
A549 | 1.01 | 1.05 | 0.996 | 1.18 | 1.28 | 1.09 | 0.972 | 0.922 | 0.808 | 0.974 | 1.06 | 0.929 | 0.399 | 0.515 | 0.49 | 0.795 | 0.907 | 0.726 | 0.583 | 0.716 | 0.638 | 0.885 | 0.948 | 0.647 | 0.197 | 0.215 | 0.159 | 0.285 | 0.309 | 0.374 | 0.369 | 0.535 | 0.305 | – | – | –
Calu-6 | 1.05 | 1.05 | 0.995 | 0.888 | 0.863 | 0.873 | 0.812 | 0.95 | 0.881 | 1.12 | 1.19 | 1 | 0.93 | 0.995 | 0.892 | 0.815 | 0.768 | 0.826 | 1.01 | 0.919 | 0.969 | 1.08 | 1.05 | 1.01 | – | – | – | – | – | – | 0.539 | 0.602 | 0.565 | 0.978 | 1.15 | 1.07
EBC-1 | 1.02 | 1.14 | 0.969 | 0.472 | 0.412 | 0.387 | 0.115 | 0.103 | 0.112 | 0.207 | 0.21 | 0.214 | 0.372 | 0.486 | 0.477 | 0.205 | 0.208 | 0.224 | 0.996 | 0.864 | 0.731 | 0.809 | 1.06 | 0.791 | – | – | – | – | – | – | 0.698 | 0.757 | 0.73 | 0.551 | 0.628 | 0.574
